Test results from patent US20070249725A1, “Pharmaceutical formulations of sympathetic antagonist for the treatment of chronic muscle pain” (priority 2006, published 2007).
Structures can show the parent of a compound that is named as a salt.

Key:
[1] = pH of phenoxybenzamine formulations; format: physicochemical; conditions: active solutions
Procedure: (§1) This was a multicenter, randomized, placebo-controlled, double-blind, dose response study of intramuscular phenoxybenzamine hydrochloride (PBZ) versus vehicle and saline placebos. Phenoxybenzamine formulation known in the art (propylene glycol and alcohol) and diluted in saline at the time of injection were evaluated. […] Patients with pain in the most commonly affected regions, the upper and lower back, were studied. Patients enrolled in this study were male or female with 4 months to 8 years of myofascial pain syndrome with identifiable active trigger points. Patients were required to have had EMG documented triggers points and meet the criteria of <10 uV in the adjacent muscle site and have a minimum of a 2:1 ratio of trigger point amplitude: adjacent amplitude. Attempts were made to obtain maximum amplitude in the trigger point.
For determination of the pH value of the active solutions, a 5% solution of the Phenoxybenzamine HCL measured 3.25. Examples of packaging material include 2-mL vials, Pharmatek Lot No. 0001, Part No. PTC-0001; rubber stoppers, Pharmatek Lot No. 0002, Part No. PTC-0002; Truedge® seals, Pharmatek Lot No. 0003, Part No. PTC-0003; Supor® filters, Pharmatek Lot No. 0005, Part No. PTC-0004; and labels, to be generated by PrimaPharm Inc. These can be supplied in the form of a kit.

[2] = Multicenter placebo-controlled dose response study of intramuscular PBZ: safety and tolerance (Example II); format: in vivo, human
Procedure: as §1
(§2) The primary objectives of this study were to evaluate the safety, tolerance, and efficacy of 4 doses (0.1, 0.3, 1.0, or 2.4 mg) of phenoxybenzamine per intramuscular injection site. The vehicle placebo group received vehicle in a concentration equivalent to the active doses. A second placebo was saline. All injections were of 0.3 ml in volume. Up to 10 trigger points were injected at each treatment session. There were up to 2 treatment sessions up to 10 days apart. The primary efficacy evaluation was made at week 12 of treatment. The Visual Analogue Pain Scale (VAS) was used to assess pain in the affected region before and after treatment. Secondary efficacy assessments included the McGill Pain Questionnaire (MPQ), the Spinal Function Sort (SFS) and the SF-36 Quality of Life questionnaire.
Thirty-two of the 79 patients (41%) in the saline placebo group, 33 of 83 patients (40%) in the vehicle placebo group, 35 of the 86 patients (41%) in the 1 mg group, and 37 of the 81 patients (46%) in the 2.4 mg group experienced 1 or more treatment-emergent adverse experiences. For all treatment groups combined, the most common adverse experiences observed were dizziness: 8%; pain 5%; nausea: 3%, and sweating: 3%. […] The most frequent adverse experiences were dizziness (8%) and pain (5%), followed by headache, sweating, and nausea (3% each).

[3] = test system: active trigger points; assay: Multicenter, randomized, placebo-controlled, double-blind dose response study of intramuscular PBZ: efficacy (Example II); format: in vivo, human
Procedure: as §1, §2

[4] = 1 mg PBZ per injection site, 86 patients

For `CC(COc1ccccc1)N(CCCl)Cc1ccccc1` (stereo not shown) [Phenoxybenzamine Hydrochloride, phenoxybenzamine hydrochloride], the “pH of a 5% solution” value [1] was 3.25, the “Dizziness, % of patients” value ([2]; 0.1 mg PBZ per injection site) was 5% and the “Dizziness, number of patients” value ([2]; 0.1 mg PBZ per injection site) was 1. For the same compound, the “Ecchymosis, % of patients” value ([2]; 0.1 mg PBZ per injection site) was 0 (0%), the “Ecchymosis, number of patients” value ([2]; 0.1 mg PBZ per injection site) was 0 (0%) and the “Flu syndrome, % of patients” value ([2]; 0.1 mg PBZ per injection site) was 0 (0%). The “Flu syndrome, number of patients” value ([2]; 0.1 mg PBZ per injection site) was 0 (0%), the “Headache, % of patients” value ([2]; 0.1 mg PBZ per injection site) was 0 (0%) and the “Headache, number of patients” value ([2]; 0.1 mg PBZ per injection site) was 0 (0%). For the same compound, the “Hypotension, % of patients” value ([2]; 0.1 mg PBZ per injection site) was 0 (0%), the “Hypotension, number of patients” value ([2]; 0.1 mg PBZ per injection site) was 0 (0%) and the “Infection, % of patients” value ([2]; 0.1 mg PBZ per injection site) was 0 (0%). The “Infection, number of patients” value ([2]; 0.1 mg PBZ per injection site) was 0 (0%), the “Injection site edema, % of patients” value ([2]; 0.1 mg PBZ per injection site) was 0 (0%) and the “Injection site edema, number of patients” value ([2]; 0.1 mg PBZ per injection site) was 0 (0%). For the same compound, the “Nausea, % of patients” value ([2]; 0.1 mg PBZ per injection site) was 0 (0%), the “Nausea, number of patients” value ([2]; 0.1 mg PBZ per injection site) was 0 (0%) and the “Pain, % of patients” value ([2]; 0.1 mg PBZ per injection site) was 5%. For the same compound, the “Pain, number of patients” value ([2]; 0.1 mg PBZ per injection site) was 1, the “Sweating, % of patients” value ([2]; 0.1 mg PBZ per injection site) was 0 (0%) and the “Sweating, number of patients” value ([2]; 0.1 mg PBZ per injection site) was 0 (0%). The “Syncope, % of patients” value ([2]; 0.1 mg PBZ per injection site) was 0 (0%), the “Syncope, number of patients” value ([2]; 0.1 mg PBZ per injection site) was 0 (0%) and the “TOTAL NUMBER OF PATIENTS reporting treatment-emergent adverse experiences, % of patients” value ([2]; 0.1 mg PBZ per injection site) was “(33%)”. The “TOTAL NUMBER OF PATIENTS reporting treatment-emergent adverse experiences, number” value ([2]; 0.1 mg PBZ per injection site) was 7, the “Dizziness, % of patients” value ([2]; 0.3 mg PBZ per injection site) was 0 (0%) and the “Dizziness, number of patients” value ([2]; 0.3 mg PBZ per injection site) was 0 (0%). The “Ecchymosis, % of patients” value ([2]; 0.3 mg PBZ per injection site) was 0 (0%), the “Ecchymosis, number of patients” value ([2]; 0.3 mg PBZ per injection site) was 0 (0%) and the “Flu syndrome, % of patients” value ([2]; 0.3 mg PBZ per injection site) was 5%. The “Flu syndrome, number of patients” value ([2]; 0.3 mg PBZ per injection site) was 1, the “Headache, % of patients” value ([2]; 0.3 mg PBZ per injection site) was 5% and the “Headache, number of patients” value ([2]; 0.3 mg PBZ per injection site) was 1. The “Hypotension, % of patients” value ([2]; 0.3 mg PBZ per injection site) was 0 (0%), the “Hypotension, number of patients” value ([2]; 0.3 mg PBZ per injection site) was 0 (0%) and the “Infection, % of patients” value ([2]; 0.3 mg PBZ per injection site) was 5%. The “Infection, number of patients” value ([2]; 0.3 mg PBZ per injection site) was 1, the “Injection site edema, % of patients” value ([2]; 0.3 mg PBZ per injection site) was 0 (0%) and the “Injection site edema, number of patients” value ([2]; 0.3 mg PBZ per injection site) was 0 (0%). The “Nausea, % of patients” value ([2]; 0.3 mg PBZ per injection site) was 5%, the “Nausea, number of patients” value ([2]; 0.3 mg PBZ per injection site) was 1 and the “Pain, % of patients” value ([2]; 0.3 mg PBZ per injection site) was 0 (0%). For the same compound, the “Pain, number of patients” value ([2]; 0.3 mg PBZ per injection site) was 0 (0%), the “Sweating, % of patients” value ([2]; 0.3 mg PBZ per injection site) was 0 (0%) and the “Sweating, number of patients” value ([2]; 0.3 mg PBZ per injection site) was 0 (0%). The “Syncope, % of patients” value ([2]; 0.3 mg PBZ per injection site) was 0 (0%), the “Syncope, number of patients” value ([2]; 0.3 mg PBZ per injection site) was 0 (0%) and the “TOTAL NUMBER OF PATIENTS reporting treatment-emergent adverse experiences, % of patients” value ([2]; 0.3 mg PBZ per injection site) was “(23%)”. For the same compound, the “TOTAL NUMBER OF PATIENTS reporting treatment-emergent adverse experiences, number” value ([2]; 0.3 mg PBZ per injection site) was 5, the “Dizziness, % of patients” value ([2]; 1 mg PBZ per injection site) was 13% and the “Dizziness, number of patients” value ([2]; 1 mg PBZ per injection site) was 11. For the same compound, the “Ecchymosis, % of patients” value ([2]; 1 mg PBZ per injection site) was 1 (1%), the “Ecchymosis, number of patients” value ([2]; 1 mg PBZ per injection site) was 1 (1%) and the “Flu syndrome, % of patients” value ([2]; 1 mg PBZ per injection site) was 3 (3%). For the same compound, the “Flu syndrome, number of patients” value ([2]; 1 mg PBZ per injection site) was 3 (3%), the “Headache, % of patients” value ([2]; 1 mg PBZ per injection site) was 6% and the “Headache, number of patients” value ([2]; 1 mg PBZ per injection site) was 5. For the same compound, the “Hypotension, % of patients” value ([2]; 1 mg PBZ per injection site) was 2 (2%), the “Hypotension, number of patients” value ([2]; 1 mg PBZ per injection site) was 2 (2%) and the “Infection, % of patients” value ([2]; 1 mg PBZ per injection site) was 2 (2%). The “Infection, number of patients” value ([2]; 1 mg PBZ per injection site) was 2 (2%), the “Injection site edema, % of patients” value ([2]; 1 mg PBZ per injection site) was 2 (2%) and the “Injection site edema, number of patients” value ([2]; 1 mg PBZ per injection site) was 2 (2%). For the same compound, the “Nausea, % of patients” value ([2]; 1 mg PBZ per injection site) was 1 (1%), the “Nausea, number of patients” value ([2]; 1 mg PBZ per injection site) was 1 (1%) and the “Pain, % of patients” value ([2]; 1 mg PBZ per injection site) was 8%. The “Pain, number of patients” value ([2]; 1 mg PBZ per injection site) was 7, the “Sweating, % of patients” value ([2]; 1 mg PBZ per injection site) was 3 (3%) and the “Sweating, number of patients” value ([2]; 1 mg PBZ per injection site) was 3 (3%). For the same compound, the “Syncope, % of patients” value ([2]; 1 mg PBZ per injection site) was 2 (2%), the “Syncope, number of patients” value ([2]; 1 mg PBZ per injection site) was 2 (2%) and the “TOTAL NUMBER OF PATIENTS reporting treatment-emergent adverse experiences, % of patients” value [2, 4] was 41%. The “TOTAL NUMBER OF PATIENTS reporting treatment-emergent adverse experiences, number” value [2, 4] was 35, the “Dizziness, % of patients” value ([2]; 2.4 mg PBZ per injection site) was “(10%)” and the “Dizziness, number of patients” value ([2]; 2.4 mg PBZ per injection site) was 8. For the same compound, the “Ecchymosis, % of patients” value ([2]; 2.4 mg PBZ per injection site) was 1 (1%), the “Ecchymosis, number of patients” value ([2]; 2.4 mg PBZ per injection site) was 1 (1%) and the “Flu syndrome, % of patients” value ([2]; 2.4 mg PBZ per injection site) was 1 (1%). For the same compound, the “Flu syndrome, number of patients” value ([2]; 2.4 mg PBZ per injection site) was 1 (1%), the “Headache, % of patients” value ([2]; 2.4 mg PBZ per injection site) was 0 (0%) and the “Headache, number of patients” value ([2]; 2.4 mg PBZ per injection site) was 0 (0%). For the same compound, the “Hypotension, % of patients” value ([2]; 2.4 mg PBZ per injection site) was 1 (1%), the “Hypotension, number of patients” value ([2]; 2.4 mg PBZ per injection site) was 1 (1%) and the “Infection, % of patients” value ([2]; 2.4 mg PBZ per injection site) was 1 (1%). The “Infection, number of patients” value ([2]; 2.4 mg PBZ per injection site) was 1 (1%), the “Injection site edema, % of patients” value ([2]; 2.4 mg PBZ per injection site) was 9% and the “Injection site edema, number of patients” value ([2]; 2.4 mg PBZ per injection site) was 7. The “Nausea, % of patients” value ([2]; 2.4 mg PBZ per injection site) was 5%, the “Nausea, number of patients” value ([2]; 2.4 mg PBZ per injection site) was 4 and the “Pain, % of patients” value ([2]; 2.4 mg PBZ per injection site) was 6%. The “Pain, number of patients” value ([2]; 2.4 mg PBZ per injection site) was 5, the “Sweating, % of patients” value ([2]; 2.4 mg PBZ per injection site) was 6% and the “Sweating, number of patients” value ([2]; 2.4 mg PBZ per injection site) was 5. The “Syncope, % of patients” value ([2]; 2.4 mg PBZ per injection site) was 1 (1%), the “Syncope, number of patients” value ([2]; 2.4 mg PBZ per injection site) was 1 (1%) and the “TOTAL NUMBER OF PATIENTS reporting treatment-emergent adverse experiences, number” value ([2]; 2.4 mg PBZ per injection site, 81 patients) was 37. The “injection site soreness compared with placebo groups” value ([2]; high dose groups, first and second treatments) was “Significantly more patients”, the “injection site pain, mean duration” value ([2]; in vivo) was “less than 10 days” and the “injection site pain, severity” value ([2]; in vivo) was “mild to moderate”. The “side effects at the injection site” value ([2]; low dosages) was “caused some adverse side effected at the injection site”, the “efficacy of formulations in this study” value ([3]; 1.0 mg and 2.4 mg in propylene glycol and alcohol composition) was “ineffective” and the “difference in percent change from baseline between placebo and active drug” value ([3]; 1.0 mg group, not statistically significant) was 9.9%. The “efficacy compared with placebo” value ([3]; 2.4 mg group) was “equivalent to placebo”.
